Values quoted from earlier work as cited in patent US11975000B1, “Tadalafil oral transmucosal film” (Xiamen LP Pharmaceutical Co., Ltd., priority 2023, dated 2024).

Columns and labels:
[1] = in vivo

CN1CC(=O)N2[C@H](c3ccc4c(c3)OCO4)c3[nH]c4ccccc4c3C[C@@H]2C1=O [Tadalafil, (6R-trans)-6-(1,3-benzodioxol-5-yl) 2,3,6,7,12,12a-hexahydro-2-methyl-pyrazino[1′,2′:1,6]pyrido[3,4-b]indole-1,4-dione]
Duration of action [1]: 24 to 36 h | Reported maximum duration [1]: 72 h | Solubility (in words): practically insoluble in water | Water solubility (in water at 25° C., U.S. Pat. No. 6,841,167): about 2 μg/mL
